# Experimental data taken from patent US10450549B2, “Aryloxyphenoxypropionate tolerance in turfrgass species and use of AAD1 as a selectable marker” (Dow AgroSciences, LLC, priority 2004, dated 2019).
# “And” between values parts separate entries of the source, which are not always exact repeats. Equal values may be shown once.
# Assays:
# [1] = system: transformed-control line containing PAT and Cry1F; test: Foliar-applied auxinic herbicides on control (PAT/Cry1F, wildtype) Arabidopsis, % injury 14 DAT; assay type: in vivo, Arabidopsis thaliana; conditions: PatCry1f - Control
# Method in brief: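 Homozygous T4 AAD1 (v3) Arabidopsis (line AAD1.01.315.076) and a PAT/Cry1F transformed control were grown in pots and track-sprayed foliarly at 187 L/ha with herbicides formulated in 200 mM Hepes pH 7.5. Injury was rated 14 days after treatment, with 3-4 replicates averaged over two experiments.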
# [2] = system: AAD1 (v2)-transformed T1 Arabidopsis; test: T1 Arabidopsis response to postemergence herbicide, % visual injury 2 WAT: native AAD1 (v2) transformants; assay type: in vivo, Arabidopsis thaliana; conditions: for % Injury Ave / individuals with 20-40% injury / individuals with <20% injury / individuals with >40% injury: Native AAD1 (v2) gene, 2 WAT
# Experimental: Freshly harvested T1 seed (transformed with native [AAD1 (v2)] or plant optimized [AAD1 (v3)] gene) was allowed to dry for 7 days at room temperature. T1 seed was sown in 26.5×51-cm germination trays (T.O. Plastics Inc., Clearwater, Minn.), each receiving a 200 mg aliquots of stratified T1 seed (˜10,000 seed) that had previously been suspended in 40 ml of 0.1% agarose solution and stored at 4° C. for 2 days to complete dormancy requirements and ensure synchronous seed germination.
# Sunshine Mix LP5 (Sun Gro Horticulture Inc., Bellevue, Wash.) was covered with fine vermiculite and subirrigated with Hoagland's solution until wet, then allowed to gravity drain. Each 40 ml aliquot of stratified seed was sown evenly onto the vermiculite with a pipette and covered with humidity domes (KORD Products, Bramalea, Ontario, Canada) for 4-5 days. Domes were removed 1 day prior to initial transformant selection using glufosinate postemergence spray (selecting for the co-transformed PAT gene).
# Five to six days after planting (DAP) and again 10 DAP, T1 plants (cotyledon and 2-4-1f stage, respectively) were sprayed with a 0.2% solution of Liberty herbicide (200 g ai/L glufosinate, Bayer Crop Sciences, Kansas City, Mo.) at a spray volume of 10 ml/tray (703 L/ha) using a DeVilbiss compressed air spray tip to deliver an effective rate of 280 g ai/ha glufosinate per application. Survivors (plants actively growing) were identified 5-7 days after the final spraying and transplanted individually into 3-inch pots prepared with potting media (Metro Mix 360). Transplanted plants were covered with humidity domes for 3-4 days and placed in a 22° C. growth chamber as before. Domes were subsequently removed and plants moved to the greenhouse (22+5° C., 50+30% RH, 14 h light:10 dark, minimum 500 μE/m^2s^1 natural+supplemental light) at least 1 day prior to testing for the ability of AAD1 (v3) (plant optimized gene) or AAD1 (v2) (native microbial gene) to provide phenoxy auxin herbicide resistance.
# Random individual T1 plants selected for glufosinate resistance above were confirmed for expression of the PAT protein using a PAT ELISA kit (Part no. 7000045, Strategic Diagnostics, Inc., Newark, Del.) to non-destructively confirm fidelity of selection process (manufacturer's protocol). Plants were then randomly assigned to various rates of phenoxy herbicides (dichlorprop or 2,4-D). […] Elevated rates were applied in subsequent trials (50, 200, 800, or 3200 g ae/ha).
# All auxin herbicide applications were made using the DeVilbiss sprayer as described above to apply 703 L/ha spray volume (0.4 ml solution/3-inch pot) or applied by track sprayer in a 187 L/ha spray volume. […] Dichlorprop used was technical grade (Sigma, St. Louis, Mo.) dissolved in DMSO and diluted in water (<1% DMSO final concentration). As herbicide rates increased beyond 800 g ae/ha, the pH of the spray solution became exceedingly acidic, burning the leaves of young, tender Arabidopsis plants and complicating evaluation of the primary effects of the herbicides. It became standard practice to apply these high rates of phenoxy herbicides in 200 mM Tris buffer (pH 9.0) to a final pH of ˜7-8.
# Table 16. […] Response is presented in terms of % visual injury 2 WAT. […] Since each T1 is an independent transformation event, one can expect significant variation of individual T1 responses within a given rate. An arithmetic mean and standard deviation is presented for each treatment. The range in individual response is also indicated in the last column for each rate and transformation. PAT/Cry1F-transformed Arabidopsis served as an auxin-sensitive transformed control. Wildtype Arabidopsis is untransformed.
# [3] = system: non-transformed (NT) ‘Shamrock’ Kentucky bluegrass; test: Haloxyfop-R-methyl on non-transformed Kentucky bluegrass controls; assay type: in vivo; conditions: similar treatment regimes
# Experimental: The selected T0 plants were sprayed with haloxyfop-R-methyl (Gallant Super®, DOW AGROSCIENCES, INC.) at rates ranging from 140 to 560 g ae/ha. […] This rate would also control susceptible monocot weed species. Measured amounts were placed individually in 25 mL glass vials and dissolved in a 12 mL volume of 1.0% (v/v) Agri-Dex® Crop Oil Concentrate (COC).
# Spray solutions were applied to the plant material with an overhead Mandel™ track sprayer equipped with a 8002E nozzles calibrated to deliver 187 L/ha over an application area of 0.503 square meters (m^2) at a spray height of 18 inches (46 cm) above average plant canopy height. Control plants were sprayed in the same manner with the COC blank.
# The treated plants and control plants were placed in a greenhouse and watered by sub-irrigation to prevent wash-off of the test compounds. At various times after application, the condition of the test plants as compared with that of the untreated plants was determined visually and scored on a scale of 0 to 100 percent, where 0 corresponds to no injury or growth inhibition, and 100 corresponds to complete kill. Regenerated, non-transformed (NT) ‘Shamrock’ Kentucky bluegrass plants and/or seed-derived clonally propagated plants served as haloxyfop sensitive controls.
smiles,measurement,setting,value
Nc1c(Cl)c(F)nc(OCC(=O)O)c1Cl [Fluroxypyr],Ave % Injury 14DAT,[1]; 50 g ae/ha foliar,76%
same,Ave % Injury 14DAT,[1]; 200 g ae/ha foliar,85%
same,Ave % Injury 14DAT,[1]; 800 g ae/ha foliar,85%
same,Ave % Injury 14DAT,[1]; 3200 g ae/ha foliar,95%
"O=C(O)COc1ccc(Cl)cc1Cl [2,4-D, 2,4-dichlorophenoxyacetic acid]",T1 plants surviving uninjured (<20% visual injury),"[2]; AAD1 (v2), 200 g ae/ha",56%
same,% Injury Ave,[2]; 50 g ae/ha,14.8%
same,individuals with 20-40% injury,[2]; 50 g ae/ha,16
same,individuals with <20% injury,[2]; 50 g ae/ha,55
same,individuals with >40% injury,[2]; 50 g ae/ha,9
same,% Injury Ave,[2]; 200 g ae/ha,34% and 34.1%
same,individuals with 20-40% injury,[2]; 200 g ae/ha,11
same,individuals with <20% injury,[2]; 200 g ae/ha,45
same,individuals with >40% injury,[2]; 200 g ae/ha,24
same,% Injury Ave,[2]; 800 g ae/ha,52.5%
same,individuals with 20-40% injury,[2]; 800 g ae/ha,32
same,individuals with <20% injury,[2]; 800 g ae/ha,11
same,individuals with >40% injury,[2]; 800 g ae/ha,37
CC(Oc1ccc(Oc2ncc(C(F)(F)F)cc2Cl)cc1)C(=O)O (stereo not drawn) [haloxyfop],"injury of control, non-transgenic plants",[3],60-100%
